Patent US20260240925A1, “METHOD AND COMPOSITION FOR PREVENTING OR TREATING MYOPIA” (Tsubota Laboratory, Inc., priority 2022, published 2026)

B1: IL-4: a cytokine necessary for M2 macrophage polarization (protein, UniProt P05112 25-153, looked up)
Interleukin-4: HKCDITLQEIIKTLNSLTEQKTLCTELTVTDIFAASKNTTEKETFCRAATVLRQFYSHHEKDTRCLGATAQQFHRHKQLIRFLKRLDRNLWGLAGLNSCPVKEANQSTLENFLERLKTIMREKYSKCSS

Key:
Format in all cases: in vivo, mouse
[1] = test system: lens-induced myopia model mice; experiment: Test Example 3: mast cell stabilizer instillation in lens-induced myopia model; conditions: for progression of myopia: ocular instillation, minus-lens-induced myopia mouse model; for choroidal thinning (change in choroidal thickness) / myopic shift in refraction (change in refractive value) / ocular elongation (change in axial length): once daily ocular instillation, 3 weeks myopia induction, cromolyn 4% solution, pemirolast potassium 0.1% solution, vs PBS group
Method: (§1) The axial length, choroidal thickness, and refractivity of the mice in each group were measured. The axial length and the choroidal thickness were measured using spectral domain optical coherence tomography (Envisu R4310, manufactured by Leica). The refractivity was measured using an infrared photorefractor for mice (made by Professor Schaeffel, University of Tubingen).
To verify the inhibitory effect of mast cell stabilizer instillation on myopia progression, a lens-induced myopia model was employed, wherein myopia was induced in mice by fitting the mice with minus lenses. During the myopia induction period, either cromolyn solution (4% solution) or pemirolast potassium (0.1% solution) was administered once daily by means of ocular instillation.
Following the test method described above, the axial length, refractive value, and choroidal thickness were measured in mice that underwent myopia induction for 3 weeks and ocular instillation of cromolyn solution or pemirolast potassium solution, as well as in control mice, and the amounts of changes therein were calculated (FIG. 7A, B, and C).

[2] = test system: mice with LIM-induced myopia; experiment: Test Example 4: mast cell stabilizer vs histamine receptor antagonist instillation in mice with LIM-induced myopia; conditions: for choroidal thinning (change in choroidal thickness) / myopic shift in refraction (change in refractive value) / ocular elongation (change in axial length): eye drops, pemirolast potassium 0.1% solution, levocabastine 0.025% solution, vs control group
Method: as §1
Anti-allergic drugs are broadly divided into two types: mast cell stabilizers, which inhibit mast cell degranulation, and histamine receptor inhibitors, which inhibit the action of histamine secreted due to mast cell degranulation. In order to clarify whether the myopia suppression effect of the mast cell stabilizer instillation in Test Example 3 was due to the action of the anti-allergic drug or to the inhibition of mast cell degranulation, pemirolast potassium (0.1% solution) and levocabastine solution (0.025% solution) were administered as eye drops, respectively as a mast cell stabilizer and a histamine receptor inhibitor, to mice with LIM-induced myopia, and the myopia-suppressing effects were compared.

choroidal macrophages = experiment: M2 macrophage polarization in the choroid after IL-13 administration, flow cytometry; conditions: IL-13 during the myopia induction period
Method: The number of macrophages was measured using a flow cytometer (CytoFLEX S, Beckman Coulter) after digestion of the choroid and staining with F4/80 antibody and CD11b antibody. The number of M2 macrophages was measured in the same manner as for the measurement of the number of macrophages, except for the addition of a staining process with CD206 antibody.

C57BL6J mice = experiment: Myopia suppression by IL-13 administration during the myopia induction period (minus lens); conditions: IL-13 during the myopia induction period
Method: as §1
Changes in blood flow were measured using swept-source optical coherence tomography (OCT S-1, Canon).

[3] = test system: C57BL6 mice undergoing myopia induction; experiment: Myopia suppression by IL-4 administration in mice undergoing myopia induction (-30 D lens); conditions: IL-4 10 μg/kg BW intraperitoneally for 3 weeks
Method: as §1
Additionally, IL-4 was administered to mice undergoing myopia induction to evaluate whether there is a myopia suppression effect (FIG. 4).
C57BL6 mice undergoing myopia induction (−30 D lens, n=4) were intraperitoneally administered 0.1 μg/100 μl (10 μg/kg BW) of IL-4 solution for 3 weeks. C57BL6J mice undergoing myopia induction (0 D lens, −30 D lens, n=4 per group) were used as control groups.

[4] = test system: M2 macrophage markers CD163 and CD206; experiment: M2 macrophage polarization in the choroid after IL-4 administration (Western blot, real-time PCR); conditions: IL-4 10 μg/kg BW intraperitoneally
Method: Therefore, IL-4, which is a cytokine necessary for M2 macrophage polarization, was administered to mice, and whether M2 polarization would occur in the choroid was evaluated by means of analyzing the expression levels of M2 macrophage markers CD163 and CD206 (FIG. 3A and B).
C57BL6J mice (n=4 per group) were intraperitoneally administered 0.1 μg/100 μl (10 μg/kg BW) of IL-4 solution. Choroid, retina, and liver samples were taken at 0 hours (before administration) as well as 4, 24, and 48 hours after administration, and the expression of M2 macrophage marker genes was analyzed by Western blot and real-time PCR (FIG. 3). In addition, choroid and retina samples were collected at 0 hours (before administration) as well as 4 and 24 hours after administration, and the expression of oxidative-stress-related genes was analyzed by real-time PCR (FIG. 4).

Molecule	progression of myopia [1]	choroidal thinning (change in choroidal thickness) [1]	myopic shift in refraction (change in refractive value) [1]	ocular elongation (change in axial length) [1]	choroidal thinning (change in choroidal thickness) [2]	myopic shift in refraction (change in refractive value) [2]	ocular elongation (change in axial length) [2]	other results
O=C(O)c1cc(=O)c2c(OCC(O)COc3cccc4oc(C(=O)O)cc(=O)c34)cccc2o1 [cromolyn, cromolyn sodium]	suppression	not observed	not observed	not observed	–	–	–	–
C[C@@H]1CN([C@H]2CC[C@](C#N)(c3ccc(F)cc3)CC2)CC[C@]1(C(=O)O)c1ccccc1 [levocabastine]	–	–	–	–	observed	observed	observed	progression of myopia ([2]; ocular instillation, mice undergoing myopia induction by fitting a minus lens): not suppressed
Cc1cccn2c(=O)c(-c3nnn[nH]3)cnc12 [pemirolast potassium]	suppression	not observed	not observed	not observed	not observed	not observed	not observed	–
IL-13: a cytokine that causes M2 polarization of macrophages	–	–	–	–	–	–	–	M2 macrophage polarization (choroidal macrophages): induced; choroidal thinning (C57BL6J mice): suppressed; minus-lens-induced ocular elongation (C57BL6J mice): suppressed; myopic shift in refraction (C57BL6J mice): suppressed
B1	–	–	–	–	–	–	–	choroidal thinning [3]: suppresses; ocular elongation [3]: suppresses; refractive loss [3]: suppresses; expression of M2 markers CD163 and CD206 in the choroid ([4]; 0, 4, 24, 48 hours): increased the expression; M2 macrophage polarization ([4]; choroid): confirmed; expression of oxidative-stress-related genes ([4]; choroid and retina, 0, 4, 24 hours, real-time PCR): suppressed expression; expression of M2 macrophage marker genes ([4]; gene expression analysis): increased expression
